Converted amounts (≈) assume the structure as drawn. Like-named read-outs stand apart in the source and are kept apart here.
Assays:
E. faecium ATCC 27270 = type: cell-based, Enterococcus faecium
Protocol: (§1) The synergy of the UTBLPs with various antibiotics was assessed using checkerboard assay as previously described. Briefly, the combination of antibiotic and OMP at varying concentrations were incubated with bacterial inoculum (5 × 10^5 CFU/mL final concentration) at 37 °C for 18 h. Growth in the form of turbidity was confirmed using an EMax Plus microplate reader (Molecular Devices, Union City, CA, USA) at 590 nm. Fractional inhibitory concentration index (FICI) was used to evaluate the interaction between the antibiotic and the OMP. FICI is the sum of the FIC of the antibiotic and the FIC of the OMP. The FIC value is calculated by dividing the MIC of the agents in combination by the MIC of the agent alone. FICI ≤ 0.5 is synergistic, 0.5 < x ≤ 4 is additive, and >4 is antagonistic.

MRSE 61589 = type: cell-based, Staphylococcus epidermidis
Protocol: as §1

MSSE 81388 = type: cell-based, Staphylococcus epidermidis
Protocol: as §1

E. cloacae 118564 = type: cell-based, Enterobacter cloacae; conditions: for MICUTBLP: UTBLP alone
Protocol: as §1

S. aureus ATCC 29213 = type: cell-based, Staphylococcus aureus; conditions: ATCC 29213, 18 h
Protocol: (§2) The in vitro antibacterial activity of the UTBLPs was assessed against wild-type and clinically isolated bacterial strains. To obtain the MIC of the compounds, the microbroth dilution susceptibility assay was performed according to the Clinical and Laboratory Standards Institute (CLSI, Wayne, PA, USA) guidelines and as previously described. Briefly, the compounds at varying concentrations were incubated with bacterial inoculum (5 × 10^5 CFU/mL final concentration) at 37 °C for 18 h. Growth in the form of turbidity was confirmed using an EMax Plus microplate reader (Molecular Devices, San Jose, CA, USA) at 590 nm.

MRSA ATCC 33592 = type: cell-based, Staphylococcus aureus; conditions: ATCC 33592, 18 h
Protocol: as §2

E. faecalis ATCC 29212 = type: cell-based, Enterococcus faecalis; conditions: ATCC 29212, 18 h
Protocol: as §2

E. coli 94393 = assay: microbe, parasite or virus in culture; type: cell-based, Escherichia coli; conditions: 94393, 18 h
Protocol: as §2

E. coli 94474 = assay: microbe, parasite or virus in culture; type: cell-based, Escherichia coli; conditions: 94474, 18 h
Protocol: as §2

E. coli ATCC 25922 = type: cell-based, Escherichia coli; conditions: ATCC 25922, 18 h
Protocol: as §2

A. baumannii ATCC 17978 = type: cell-based, Acinetobacter baumannii; conditions: for MICUTBLP: UTBLP alone
Protocol: as §1

A. baumannii AB027 = type: cell-based, Acinetobacter baumannii; conditions: for MICUTBLP: UTBLP alone
Protocol: as §1

A. baumannii 92247 = type: cell-based, Acinetobacter baumannii; conditions: for MICUTBLP: UTBLP alone
Protocol: as §1

K. pneumoniae 113250 = type: cell-based, Klebsiella pneumoniae; conditions: for MICUTBLP: UTBLP alone
Protocol: as §1

[1] = tested on: P. aeruginosa PA259-96196; type: cell-based, Pseudomonas aeruginosa; conditions: for MICUTBLP: UTBLP alone
Protocol: as §1

P. aeruginosa PAO1 = type: cell-based, Pseudomonas aeruginosa; conditions: for MICUTBLP: UTBLP alone
Protocol: as §1

[2] = UTBLP alone, plate with chloramphenicol
[3] = UTBLP in combination with chloramphenicol
[4] = chloramphenicol in combination with the UTBLP
[5] = UTBLP in combination with novobiocin
[6] = UTBLP in combination with rifampicin
[7] = novobiocin in combination with the UTBLP
[8] = UTBLP in combination with niclosamide
[9] = niclosamide in combination with the UTBLP
[10] = rifampicin in combination with the UTBLP

CCCCCCCC(=O)N[C@@H](CCCCNC)C(=O)NCCCN(CCCNC(=O)[C@H](CCCCNC)NC(=O)CCCCCCC)CC(=O)N[C@@H](CCCCNC)C(N)=O [UTBLP 2]
Interpretation (E. faecium ATCC 27270; UTBLP + chloramphenicol): Additive (0.5 < x ≤ 4 is additive) | MICUTBLP (E. faecium ATCC 27270; [2]): > 128 µg/mL | MICUTBLP [MICcombo] (E. faecium ATCC 27270; [3]): 0.25 µg/mL | MICchloramphenicol [MICcombo] (E. faecium ATCC 27270; [4]): 8 µg/mL | Interpretation (MRSE 61589; UTBLP + chloramphenicol): Additive (0.5 < x ≤ 4 is additive) | MICUTBLP (MRSE 61589; [2]): 64 µg/mL | MICUTBLP [MICcombo] (MRSE 61589; [3]): 0.25 µg/mL | MICchloramphenicol [MICcombo] (MRSE 61589; [4]): 16 µg/mL | Interpretation (MSSE 81388; UTBLP + chloramphenicol): Additive (0.5 < x ≤ 4 is additive) | MICUTBLP (MSSE 81388; [2]): 64 µg/mL | MICUTBLP [MICcombo] (MSSE 81388; [3]): 0.25 µg/mL | MICchloramphenicol [MICcombo] (MSSE 81388; [4]): 8 µg/mL | Interpretation (E. cloacae 118564; UTBLP + novobiocin): Synergy (FICI ≤ 0.5 is synergistic) | Interpretation (E. cloacae 118564; UTBLP + rifampicin): Synergy (FICI ≤ 0.5 is synergistic) | MICUTBLP (E. cloacae 118564; plate with novobiocin): > 128 µg/mL | MICUTBLP (E. cloacae 118564; plate with rifampicin): > 128 µg/mL | MICUTBLP [MICcombo] (E. cloacae 118564; [5]): 16 µg/mL | MICUTBLP [MICcombo] (E. cloacae 118564; [6]): 16 µg/mL | MICantibiotic [MICcombo] (E. cloacae 118564; [7]): 8 µg/mL | MIC (S. aureus ATCC 29213): 128 µg/mL (≈ 148 µM) | MIC (MRSA ATCC 33592): >128 µg/mL | MIC (E. faecalis ATCC 29212): >128 µg/mL | MIC (E. coli 94393): > 128 µg/mL | MIC (E. coli 94474): > 128 µg/mL | MIC (E. coli ATCC 25922): >128 µg/mL | Interpretation (A. baumannii ATCC 17978; UTBLP + chloramphenicol): Additive (0.5 < x ≤ 4 is additive) | Interpretation (A. baumannii ATCC 17978; UTBLP + niclosamide): Synergy (FICI ≤ 0.5 is synergistic) | Interpretation (A. baumannii ATCC 17978; UTBLP + novobiocin): Synergy (FICI ≤ 0.5 is synergistic) | Interpretation (A. baumannii ATCC 17978; UTBLP + rifampicin): Synergy (FICI ≤ 0.5 is synergistic) | MICUTBLP (A. baumannii ATCC 17978; plate with chloramphenicol): > 128 µg/mL | MICUTBLP (A. baumannii ATCC 17978; plate with niclosamide): > 128 µg/mL | MICUTBLP (A. baumannii ATCC 17978; plate with novobiocin): > 128 µg/mL | MICUTBLP (A. baumannii ATCC 17978; plate with rifampicin): > 128 µg/mL | MICUTBLP [MICcombo] (A. baumannii ATCC 17978; [3]): 0.25 µg/mL | MICUTBLP [MICcombo] (A. baumannii ATCC 17978; [8]): 8 µg/mL | MICUTBLP [MICcombo] (A. baumannii ATCC 17978; [5]): 8 µg/mL | MICUTBLP [MICcombo] (A. baumannii ATCC 17978; [6]): 16 µg/mL | MICantibiotic [MICcombo] (A. baumannii ATCC 17978; [4]): 64 µg/mL | MICantibiotic [MICcombo] (A. baumannii ATCC 17978; [9]): 2 µg/mL | MICantibiotic [MICcombo] (A. baumannii ATCC 17978; [7]): 0.5 µg/mL | MICantibiotic [MICcombo] (A. baumannii ATCC 17978; [10]): 0.031 µg/mL | Interpretation (A. baumannii AB027; UTBLP + novobiocin): Synergy (FICI ≤ 0.5 is synergistic) | Interpretation (A. baumannii AB027; UTBLP + rifampicin): Synergy (FICI ≤ 0.5 is synergistic) | MICUTBLP (A. baumannii AB027; plate with novobiocin): > 128 µg/mL | MICUTBLP (A. baumannii AB027; plate with rifampicin): > 128 µg/mL | MICUTBLP [MICcombo] (A. baumannii AB027; [5]): 16 µg/mL | MICUTBLP [MICcombo] (A. baumannii AB027; [6]): 16 µg/mL | MICantibiotic [MICcombo] (A. baumannii AB027; [7]): 0.25 µg/mL | MICantibiotic [MICcombo] (A. baumannii AB027; [10]): 0.063 µg/mL | Interpretation (A. baumannii 92247; UTBLP + novobiocin): Synergy (FICI ≤ 0.5 is synergistic) | Interpretation (A. baumannii 92247; UTBLP + rifampicin): Synergy (FICI ≤ 0.5 is synergistic) | MICUTBLP (A. baumannii 92247; plate with novobiocin): > 128 µg/mL | MICUTBLP (A. baumannii 92247; plate with rifampicin): > 128 µg/mL | MICUTBLP [MICcombo] (A. baumannii 92247; [5]): 16 µg/mL | MICUTBLP [MICcombo] (A. baumannii 92247; [6]): 16 µg/mL | MICantibiotic [MICcombo] (A. baumannii 92247; [7]): 0.25 µg/mL | MICantibiotic [MICcombo] (A. baumannii 92247; [10]): 0.063 µg/mL | Interpretation (K. pneumoniae 113250; UTBLP + novobiocin): Synergy (FICI ≤ 0.5 is synergistic) | Interpretation (K. pneumoniae 113250; UTBLP + rifampicin): Synergy (FICI ≤ 0.5 is synergistic) | MICUTBLP (K. pneumoniae 113250; plate with novobiocin): > 128 µg/mL | MICUTBLP (K. pneumoniae 113250; plate with rifampicin): > 128 µg/mL | MICUTBLP [MICcombo] (K. pneumoniae 113250; [5]): 16 µg/mL | MICUTBLP [MICcombo] (K. pneumoniae 113250; [6]): 16 µg/mL | MICantibiotic [MICcombo] (K. pneumoniae 113250; [7]): 4 µg/mL | MICantibiotic [MICcombo] (K. pneumoniae 113250; [10]): 4 µg/mL | Interpretation ([1]; UTBLP + novobiocin): Synergy (FICI ≤ 0.5 is synergistic) | Interpretation ([1]; UTBLP + rifampicin): Synergy (FICI ≤ 0.5 is synergistic) | MICUTBLP ([1]; plate with novobiocin): > 128 µg/mL | MICUTBLP ([1]; plate with rifampicin): > 128 µg/mL | MICUTBLP [MICcombo] [1, 5]: 16 µg/mL | MICUTBLP [MICcombo] [1, 6]: 16 µg/mL | MICantibiotic [MICcombo] [1, 7]: 512 µg/mL | MICantibiotic [MICcombo] [1, 10]: 4 µg/mL | Interpretation (P. aeruginosa PAO1; UTBLP + chloramphenicol): Synergy (FICI ≤ 0.5 is synergistic) | Interpretation (P. aeruginosa PAO1; UTBLP + niclosamide): Additive (0.5 < x ≤ 4 is additive) | Interpretation (P. aeruginosa PAO1; UTBLP + novobiocin): Synergy (FICI ≤ 0.5 is synergistic) | Interpretation (P. aeruginosa PAO1; UTBLP + rifampicin): Additive (0.5 < x ≤ 4 is additive) | MICUTBLP (P. aeruginosa PAO1; plate with chloramphenicol): > 128 µg/mL | MICUTBLP (P. aeruginosa PAO1; plate with niclosamide): > 128 µg/mL | MICUTBLP (P. aeruginosa PAO1; plate with novobiocin): > 128 µg/mL | MICUTBLP (P. aeruginosa PAO1; plate with rifampicin): > 128 µg/mL | MICUTBLP [MICcombo] (P. aeruginosa PAO1; [3]): 8 µg/mL | MICUTBLP [MICcombo] (P. aeruginosa PAO1; [8]): 0.25 µg/mL | MICUTBLP [MICcombo] (P. aeruginosa PAO1; [5]): 16 µg/mL | MICUTBLP [MICcombo] (P. aeruginosa PAO1; [6]): 8 µg/mL | MICantibiotic [MICcombo] (P. aeruginosa PAO1; [4]): 8 µg/mL | MICantibiotic [MICcombo] (P. aeruginosa PAO1; [9]): 1024 µg/mL | MICantibiotic [MICcombo] (P. aeruginosa PAO1; [7]): 256 µg/mL | MICantibiotic [MICcombo] (P. aeruginosa PAO1; [10]): 8 µg/mL

From article PMC8963254, “Effects of Lysine N-ζ-Methylation in Ultrashort Tetrabasic Lipopeptides (UTBLPs) on the Potentiation of Rifampicin, Novobiocin, and Niclosamide in Gram-Negative Bacteria” (Antibiotics, 2022)
